Assay results: patent US11072628B2, “Nucleoside analogues for the treatment of parasitic infections” (UNIVERSITEIT GENT, priority 2017, dated 2021)
Several values for one entry are separate records, joined by “and”; a condition that tells them apart may be missing. Identical values can stand only once. Like-named read-outs stand apart in the source and are kept apart here. One block for each molecule: values may come before it.

Legend:
[1] = Cytotoxicity against MRC-5 fibroblasts; details: human
Experimental: (§1) Cytotoxicity was assayed against MRC-5 fibroblasts. Results are depicted in Tables 4 and 5.

[2] = tested on: T. b. brucei Lister 427 (wild-type); test: Drug susceptibility test, Lister 427WT (resazurin); format: cell-based; details: Trypanosoma brucei, read-out: Lister-427 EC50
Experimental: (§2) Fluorescence was determined using a FLUOstar Optima (BMG Labtech, Durham, N.C.) and the results fitted to a sigmoid curve with variable slope using Prism 5.0 (GraphPad, San Diego, Ca).

T. brucei Squib 427 = test: In vitro drug susceptibility, T. brucei Squib 427 (resazurin); format: cell-based, Trypanosoma brucei brucei; details: for selectivity index (SI) for T. b. brucei: MRC-5 versus T. b. brucei
Experimental: (§3) All trypanosome strains were cultured in the standard HMI-9 medium supplemented with 10% fetal bovine serum (FBS) at 37° C. in a 5% CO2 atmosphere.

[3] = tested on: T. cruzi Tulahuen CL2 β galactosidase strain; test: T. cruzi Tulahuen CL2 β galactosidase strain on MRC-5SV2 cells (CPRG); format: cell-based, Trypanosoma cruzi
Experimental: All cultures and assays were conducted at 37° C./5% CO2. […] The results were expressed as % reduction in parasite burdens compared to control wells from which an EC50 was calculated.

T. b. brucei TbAT1-KO = test: microbe, parasite or virus in culture; format: cell-based, Trypanosoma brucei brucei; details: for EC50: Trypanosoma brucei, read-out: TbAT1-KO EC50; for RF (resistance factor) TbAT1-KO: ratio of EC50 between TbAT1-KO and Lister-427
Experimental: as §2

T. b. brucei ISMR1 = test: microbe, parasite or virus in culture; format: cell-based, Trypanosoma brucei brucei; details: for EC50: Trypanosoma brucei, read-out: ISMR1 EC50; for RF (resistance factor) ISMR1: ratio of EC50 between ISMR1 and Lister-427
Experimental: as §2

T. b. brucei B48 = test: microbe, parasite or virus in culture; format: cell-based, Trypanosoma brucei brucei; details: for EC50: Trypanosoma brucei, read-out: B48 EC50; for RF (resistance factor) B48: ratio of EC50 between B48 and Lister-427
Experimental: as §2

[4] = tested on: T. vaginalis trophozoites (metronidazole susceptible G3 strain); test: Trichomonas vaginalis in vitro assay; format: cell-based; details: average of 2-5 independent replicates
Experimental: T. vaginalis trophozoites (metronidazole susceptible G3 strain) were grown in vitro in modified Diamond's media (MDM) with 10% heat inactivated horse serum (HIHS) acquired from Gibco Life Technologies. After medium preparation, the pH was adjusted to 6.3-6.4 employing 1.0 M aq. HCl. Parasites cultures were passaged every day by taking 1 mL of cell culture into a 25 mL bottle of fresh media to ensure the cells were kept at the appropriate concentration of ˜2×10^6 cells/mL. The culture flasks were filled completely and tightly capped to provide the cells with an anaerobic environment. The parasites were maintained in incubation at 37° C. When culturing in multiwell plates, the plates were sealed with Nescofilm® and inserted in BD GasPak EZ pouches (BD Diagnostics, UK) in order to create anaerobic conditions. Assays were performed with 5×10^4 trophozoites/well (100 μL) to which compound dilutions were added (100 μL). Outside wells of columns and rows were filled with 200 μL of sterile water. Plates were sealed with Nescofilm® and incubated under anaerobic conditions as described above. After 24 h, 30 μL of assay dye solution (resorufin) was added, and incubated for 1-2 h before being read using Fluostar Optima (BMG Labtech, UK) at an excitation wavelength of 544 nm and an emission wavelength of 620 nm.

MRC-5 fibroblasts = test: Cytotoxicity against MRC-5 fibroblasts; details: read-out: MRC-5 EC50, cytotoxicity
Experimental: as §1

[5] = tested on: T. b. rhodesiense STIB-900; test: In vitro drug susceptibility, T. b. rhodesiense STIB-900 (resazurin); format: cell-based, Trypanosoma brucei rhodesiense
Experimental: as §3

T. b. brucei Squib 427 = test: In vivo antiparasitic activity in mice (T. brucei; acute model); design: species or system Trypanosoma brucei brucei; details: for clinical symptoms of trypanosomiasis / parasitemia: infected mice, 5 consecutive days, test compound 25 mg/kg PO b.i.d. (FH7429_D also 10 mg/kg s.i.d. IP), suramin 10 mg/kg
Experimental: The test compound of the invention was formulated in 10% (V/V) PEG400 in water at 2 mg/mL and was freshly prepared at every administration. The test compound was administered orally (PO) b.i.d. for 5 days at 25 mg/kg. The reference drug suramin was formulated in PBS at 2.5 mg/mL and administered s.i.d. IP for 5 days at 10 mg/kg. Treatment was initiated ½ hour prior to the IP infection.

[6] = Trypanosoma brucei, read-out: T.b. brucei EC50, Table 4, average of 2-6 independent determinations
[7] = Trypanosoma cruzi, TULAHUEN, MRC-5 SV2, Table 5, average of 2-4 independent replicates
[8] = MRC-5 fibroblasts, MRC-5 EC50, Table 4, cytotoxicity
[9] = MRC-5 fibroblasts, MRC-5 EC50, Table 5, cytotoxicity
[10] = Table 1, average of 2-4 independent determinations, read-out: T. brucei rhod. EC50
[11] = Table 1, average of 2-4 independent determinations, read-out: T. brucei brucei EC50
[12] = Table 2, average of 2-3 independent replicates
[13] = Trypanosoma brucei, RHODESIENSE, read-out: T.b. rhod. EC50
[14] = Trypanosoma brucei, read-out: EC50 against T. brucei

Structure (SMILES): Nc1ncnc2c1ccn2[C@@H]1O[C@H](CO)[C@@H](O)[C@H]1O [FH5284, tubercidin]
EC50 [1]: 2.23 µM
EC50 [2]: 150 ± 30 nM
EC50 (T. brucei Squib 427; [6]): 0.48 µM
EC50 [3, 7]: 340 nM
EC50 (T. b. brucei TbAT1-KO): 2600 ± 700 nM
RF (resistance factor) TbAT1-KO (T. b. brucei TbAT1-KO): > 17 and 17.2
EC50 (T. b. brucei ISMR1): 1700 ± 500 nM
EC50 (T. b. brucei B48): 4300 ± 1300 nM

Structure (SMILES): Cc1ccc(-c2cn([C@@H]3O[C@H](CO)[C@@H](O)[C@H]3O)c3ncnc(N)c23)cc1 [TH1011, 4-amino-5-(4-methylphenyl)-N7-(β-D-ribofuranosyl)-pyrrolo[2,3-d]pyrimidine]
EC50 [1, 8]: 26.2 µM
EC50 [1, 9]: 26.2 µM
EC50 ([4]; Trichomonas vaginalis, Table 6): 60 nM
EC50 (T. brucei Squib 427; [6]): 29.1 µM
EC50 [3, 7]: 1500 nM
melting point: 165 °C

Structure (SMILES): COc1ccc(-c2cn([C@@H]3O[C@H](CO)C[C@H]3O)c3ncnc(N)c23)cc1 [FH8494, 4-amino-5-(4-methoxyphenyl)-N7-(3′-deoxy-β-D-ribofuranosyl)-pyrrolo[2,3-d]pyrimidine]
EC50 (MRC-5 fibroblasts; Table 1): 24.3 µM
EC50 (MRC-5 fibroblasts; Table 2): 24.3 µM
EC50 [5, 10]: 1200 nM
EC50 ([4]; Table 3): 730 nM
EC50 (T. brucei Squib 427; [11]): 3.7 µM
EC50 [3, 12]: 2400 nM

EC50 (T. brucei Squib 427; Trypanosoma brucei, Table 1, average of 2-4 independent determinations, read-out: T. brucei brucei EC50): 0.05 µM
EC50 (T. brucei Squib 427; Trypanosoma brucei, Table 4, average of 2-6 independent determinations, read-out: T.b. brucei EC50): 0.05 µM
Structure (SMILES): Cc1ccc(C(=O)Nc2ccc(S(=O)(=O)O)c3cc(S(=O)(=O)O)cc(S(=O)(=O)O)c23)cc1NC(=O)c1cccc(NC(=O)Nc2cccc(C(=O)Nc3cc(C(=O)Nc4ccc(S(=O)(=O)O)c5cc(S(=O)(=O)O)cc(S(=O)(=O)O)c45)ccc3C)c2)c1 [Suramin, reference compound]
clinical symptoms of trypanosomiasis / parasitemia (T. b. brucei Squib 427): no symptoms nor parasitemia developed
EC50 ([5]; Trypanosoma brucei, RHODESIENSE, Table 1, average of 2-4 independent determinations, read-out: T. brucei rhod. EC50): 40 nM
EC50 ([5]; Trypanosoma brucei, RHODESIENSE, Table 4, average of 2-6 independent determinations, read-out: T.b. rhod. EC50): 40 nM

Structure (SMILES): Nc1ncnc2c1c(-c1ccccn1)cn2[C@@H]1O[C@H](CO)[C@@H](O)[C@H]1O [TH1008, 4-amino-5-(pyrid-2-yl)-N7-(β-D-ribofuranosyl)-pyrrolo[2,3-d]pyrimidine]
detectability of parasites in the peripheral blood (T. b. brucei Squib 427; 25 mg/kg PO b.i.d. for 5 days): undetectable from 8 dpi onwards
parasites in the peripheral blood, mean Log10 (T. b. brucei Squib 427; 4 dpi, 25 mg/kg PO b.i.d. for 5 days): 7.5
parasitological cure (sub-inoculation in naive mice) (T. b. brucei Squib 427; animals surviving until day 21 post infection): total parasitological cure
clinical symptoms of trypanosomiasis / parasitemia (T. b. brucei Squib 427): no clinical symptoms of trypanosomiasis were observed
adverse drug effects (T. b. brucei Squib 427; mice, 5 days treatment): No signs of adverse drug effects were observed
selectivity index for T. b. rhodesiense ([5]; MRC-5 versus T. b. rhodesiense): ~500
EC50 [5, 13]: 31 nM
EC50 [2]: 170 ± 40 nM
anti-trypanosomal activity against T. brucei, in words (T. brucei Squib 427): nanomolar antitrypanosomal activity
selectivity index (SI) for T. b. brucei (T. brucei Squib 427): 50
EC50 (T. brucei Squib 427; [6]): 0.36 µM
EC50 [3, 7]: 5020 nM
EC50 (T. b. brucei TbAT1-KO): 400 ± 90 nM
RF (resistance factor) TbAT1-KO (T. b. brucei TbAT1-KO): 2.4
EC50 (T. b. brucei ISMR1): 430 ± 70 nM
RF (resistance factor) ISMR1 (T. b. brucei ISMR1): 2.5
EC50 (T. b. brucei B48): 270 ± 40 nM
RF (resistance factor) B48 (T. b. brucei B48): 1.6

Structure (SMILES): N=C(N)c1ccc(/N=N/Nc2ccc(C(=N)N)cc2)cc1 [Diminazene]
EC50 [2]: 420 ± 64 nM
EC50 (T. b. brucei TbAT1-KO): 4500 ± 900 nM
RF (resistance factor) TbAT1-KO (T. b. brucei TbAT1-KO): 10.6
EC50 (T. b. brucei ISMR1): 2900 ± 420 nM
RF (resistance factor) ISMR1 (T. b. brucei ISMR1): 6.9
EC50 (T. b. brucei B48): 7200 ± 1600 nM

Structure (SMILES): N=C(N)c1ccc(OCCCCCOc2ccc(C(=N)N)cc2)cc1 [Pentamidine]
EC50 ([2]; reference cell line): 11 ± 1 nM
EC50 (T. b. brucei TbAT1-KO): 18 ± 2 nM
RF (resistance factor) TbAT1-KO (T. b. brucei TbAT1-KO): 1.8
EC50 (T. b. brucei ISMR1): 140 ± 40 nM
EC50 (T. b. brucei B48): 990 ± 160 nM

Structure (SMILES): Nc1ncnc2c1c(-c1ccc3ccccc3c1)cn2[C@@H]1O[C@H](CO)[C@@H](O)[C@H]1O [FH8461, 4-amino-5-(2-naftyl)-N7-(β-D-ribofuranosyl)-pyrrolo[2,3-d]pyrimidine]
EC50 (MRC-5 fibroblasts; Table 4): 7.53 µM
EC50 (MRC-5 fibroblasts; Table 5): 7.53 µM
EC50 ([5]; Table 4, average of 2-6 independent determinations, read-out: T.b. rhod. EC50): 6790 nM
EC50 ([4]; Table 6): 580 nM
EC50 (T. brucei Squib 427; Table 4, average of 2-6 independent determinations, read-out: T.b. brucei EC50): 7.83 µM
EC50 ([3]; Table 5, average of 2-4 independent replicates): 2480 nM

Structure (SMILES): Nc1ncnc2c1c(-c1cccc(Cl)c1)cn2[C@@H]1O[C@H](CO)[C@@H](O)[C@H]1O [FH8459, 4-amino-5-(3-chlorophenyl)-N7-(β-D-ribofuranosyl)-pyrrolo[2,3-d]pyrimidine]
EC50 [1, 8]: 32.8 µM
EC50 [1, 9]: 32.8 µM
EC50 [5, 13]: 6880 nM
EC50 ([4]; Trichomonas vaginalis, Table 6): 240 nM
EC50 (T. brucei Squib 427; [14]): < 10 µM
EC50 (T. brucei Squib 427; [6]): 9.9 µM
EC50 [3, 7]: 1420 nM
melting point: 135 °C

Structure (SMILES): Nc1ncnc2c1c(-c1ccc(Cl)c(Cl)c1)cn2[C@@H]1O[C@H](CO)[C@@H](O)[C@H]1O [FH3147, 4-amino-5-(3,4-dichlorophenyl)-N7-(β-D-ribofuranosyl)-pyrrolo[2,3-d]pyrimidine]
EC50 [1, 8]: 14.7 µM
EC50 [1, 9]: 14.7 µM
EC50 [5, 13]: 320 nM
EC50 ([4]; Trichomonas vaginalis, Table 6): 20 nM
selectivity index (SI) for T. b. brucei (T. brucei Squib 427): ~5
EC50 (T. brucei Squib 427; [6]): 3.07 µM
EC50 [3, 7]: 190 nM
melting point: 221 to 223 °C

Structure (SMILES): Nc1ncnc2c1c(-c1ccc(OC(F)(F)F)cc1)cn2[C@@H]1O[C@H](CO)C[C@H]1O [FH9577, 4-amino-5-(4-trifluoromethoxyphenyl)-N7-(3′-deoxy-β-D-ribofuranosyl)-pyrrolo[2,3-d]pyrimidine]
EC50 (MRC-5 fibroblasts; Table 1): 40.4 µM
EC50 (MRC-5 fibroblasts; Table 2): 40.4 µM
EC50 [5, 10]: 9800 nM
EC50 ([4]; Table 3): 790 nM
EC50 (T. brucei Squib 427; [11]): 24.5 µM
EC50 [3, 12]: 1390 nM

Structure (SMILES): CC[n+]1c(-c2ccccc2)c2cc(N/N=N/c3cccc(C(=N)N)c3)ccc2c2ccc(N)cc21 [Isometamidium]
EC50 [2]: 650 ± 85 nM
EC50 (T. b. brucei TbAT1-KO): 750 ± 140 nM
RF (resistance factor) TbAT1-KO (T. b. brucei TbAT1-KO): 1.2
EC50 (T. b. brucei ISMR1): 3100 ± 500 nM
RF (resistance factor) ISMR1 (T. b. brucei ISMR1): 4.81
EC50 (T. b. brucei B48): 560 ± 130 nM
RF (resistance factor) B48 (T. b. brucei B48): 0.85

Structure (SMILES): Nc1ncnc2c1c(-c1ccc(F)cc1)cn2[C@@H]1O[C@H](CO)[C@@H](O)[C@H]1O [MS1001, 4-amino-5-(4-fluorophenyl)-N7-(β-D-ribofuranosyl)-pyrrolo[2,3-d]pyrimidine]
EC50 [1, 8]: > 64 µM
EC50 [1, 9]: > 64 µM
EC50 [5, 13]: 14700 nM
EC50 ([4]; Trichomonas vaginalis, Table 6): 110 nM
EC50 (T. brucei Squib 427; [14]): < 10 µM
EC50 (T. brucei Squib 427; [6]): 8.81 µM
EC50 [3, 7]: 490 nM
melting point: 145 to 148 °C (dec.)
